Measured values as given in patent US9899125B2, “Medium- or high-voltage electrical appliance having a low environmental impact and hybrid insulation” (Alstom Technology Ltd., priority 2012, dated 2018).

Experiments:
[1] = Toxicity: LC50 (lethal concentration, 50%); type: in vivo; details: pure heptafluoroisobutyronitrile
[2] = Toxicity for humans and animals (statement)
Excerpt: Currently, the most widely-used gas in that type of equipment is sulfur hexafluoride (SF6). That gas presents dielectric strength that is relatively high, good thermal conductivity, and low dielectric losses. It is chemically inert, non-toxic for humans and animals and, after being dissociated by an electric arc, it recombines quickly and almost completely. In addition, it is non-flammable and its price is still moderate.

[3] = prior art statement; cited from earlier work

Row | SMILES | LC50 (lethal concentration, 50%) [1] | toxicity for humans [2] | toxicity for humans and animals [3]
1 | N#CC(F)(C(F)(F)F)C(F)(F)F [Heptafluoroisobutyronitrile, 2,3,3,3-tetrafluoro-2-trifluoromethyl propanenitrile] | greater than 15000 ppm | no specific toxicity | 
2 | FS(F)(F)(F)(F)F [SF6, sulfur hexafluoride] |  |  | non-toxic
